Laboratory results: ChEMBL document CHEMBL5625178, “The topoisomerase II β -kinase associated with HIV-1 is a potential target for pyridine-bischalcones' anti-HIV-1 activity” (Eur J Med Chem, 2023)
Calls of active or inactive are those of the source. The rule behind the calls is not given here.

Assays:
[1] = (§1) Inhibition of HIV-1 topoisomerase II beta kinase phosphorylation in the presence of […][gamma 32P]-ATP incubated for 30 mins by liquid scintillation counter analysis; set-up: species or system Human immunodeficiency virus 1
[2] = Cytotoxicity against human SUP-T1 cells assessed as reduction in cell viability incubated for 16 hrs by MTT assay; format: toxicity, cell-based
[3] = system: Human immunodeficiency virus 1; experiment: Antiviral activity against HIV1 infected in human SUP-T1 cells assessed as inhibition of viral replication incubated for 5 hrs by sandwich ELISA method; format: functional, organism-based
[4] = system: Human immunodeficiency virus 1; experiment: Antiviral activity against HIV1 93IN101 infected in human SUP-T1 cells assessed as suppression of proviral DNA synthesis at IC50 concentration incubated for 5 hrs by PCR analysis; format: functional, organism-based
SUP-T1 = experiment: Inhibition of Topoisomerase II beta serine phosphorylation in human SUP-T1 cells infected with HIV1 93IN101 by Western blot analysis; format: cell-based; conditions: dose 5-50 nM
[5] = system: Human immunodeficiency virus 1; experiment: as §1; conditions: dose 0.25-600 pM

SMILES | IC50 [1] [nM] | inhibition [5] | CC50 at 16 h [2] [nM] | Activity [3] | Activity [4] | inhibition (SUP-T1)
O=C1/C(=C/c2ccccn2)CCC/C1=C\c1ccccn1 | 0.55 |  | 920 | Dose-Dependent Effect |  | 
Cc1cn([C@H]2C[C@H](N=[N+]=[N-])[C@@H](CO)O2)c(=O)[nH]c1=O |  |  |  | Dose-Dependent Effect |  | 
O=C1/C(=C/c2ccncc2)CCC/C1=C\c1ccncc1 | 0.44 | Dose-Dependent Effect | 820 | Dose-Dependent Effect |  | 
c1ccc(-c2cccnc2)cc1 |  | Dose-Dependent Effect | 1500 |  |  | 
O=C1/C(=C/c2cccnc2)CCC/C1=C\c1cccnc1 | 0.32 |  | 960 | Dose-Dependent Effect |  | 

Now from value to compound, other results behind:

IC50 [1] [nM] | inhibition [5] | SMILES | CC50 at 16 h [2] [nM] | Activity [3] | Activity [4] | inhibition (SUP-T1)
0.15 |  | C[n+]1ccc(/C=C2\CCC/C(=C\c3cc[n+](C)cc3)C2=O)cc1 | 2020 | Dose-Dependent Effect | Active | Dose-Dependent Effect
0.1 |  | C[n+]1cccc(/C=C2\CCC/C(=C\c3ccc[n+](C)c3)C2=O)c1 | 2120 | Dose-Dependent Effect | Active | Dose-Dependent Effect
0.14 |  | C[n+]1ccccc1/C=C1\CCC/C(=C\c2cccc[n+]2C)C1=O | 2040 | Dose-Dependent Effect | Active | Dose-Dependent Effect
